Converted amounts (≈) assume the structure as drawn. Structures can show the parent of a compound that is named as a salt. Where two headings read alike, the source gives them in different places.
Experiments:
[1] = test system: Enterococcus faecalis ATCC 51299 (vanA-positive; vancomycin-resistant); assay: In vitro antibacterial activity, MIC (UCL), VRE; type: cell-based
Outline: (§1)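 Each organism was taken from overnight tryptone soya agar, suspended in PBS at A600 0.1, diluted 1:100 in isosensitest broth and added to serially diluted compound (32 to 0.03 μg/mL).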

[2] = test system: Staphylococcus aureus NCTC 13373 (mecA-positive; methicillin-resistant); assay: In vitro antibacterial activity, MIC (UCL School of Pharmacy assay), MRSA; type: cell-based; settings: Staphylococcus aureus
Outline: as §1

[3] = HEK293 toxicity, 96-well dose-response (UCL; MTT or resazurin, with or without recovery); type: cell-based, human; settings: human, HEK293 cells; for Dmax spread between recovery and non-recovery conditions at 24 h, 32 μg/mL: read-out: spread of Dmax values comparing recovery and non-recovery conditions
Description: The importance of balancing potency vs MRSA and cytotoxicity led us to examine a subset of compounds more thoroughly for toxicity against human embryonic kidney cell line HEK293. […] Dmax is a parameter that quantifies toxicity at the highest tested concentration (32 μg/mL for all compounds), calculated as reciprocal percentage of viable cells (100 – viability%), where cells either were allowed to recover or viability was measured immediately after treatment. […] Our efforts focused on trying to replicate the original toxicity experiments (by CO-ADD) with tamoxifen using a protocol modified for use with 96-well plates. Given the variability of protocols and results in the literature,[28] it was important to compare with a standard protocol we have reliably used in our own laboratories.[29]−[33] […] Truly “non-toxic” compounds might be expected to show Dmax < 50% for all experiment variations, e.g., 861. […] A large spread of Dmax values comparing recovery and non-recovery conditions larger than 20% is perhaps indicative of a mechanism of toxicity that persists beyond exposure, i.e., cytotoxic compounds that continue to induce toxicity as cells recover and restart dividing, for example, compounds 865, 870, 871, 980, and 981. […] This variability could be driven by interference of the compounds with the fluorescence readout or resorufin build-up as previously described.[27]
HEK293 cells (ATCC, UK) at passage 32 were a kind gift from Dr. Ben Allsop from the Translational Research Office at University College London. Cells were tested for mycoplasma using a MycoAlert Detection Kit (Lonza, Switzerland) as per manufacturer instructions, frozen stocks were stored in liquid nitrogen, and cells were re-tested whenever a new aliquot was thawed.
Cells were maintained in DMEM (Sigma-Aldrich, UK) supplemented with 10% heat-inactivated FBS (Sigma-Aldrich, UK), 1% GlutaMax (ThermoFisher, UK), and 1% sodium pyruvate (Lonza, UK) without antibiotics in an incubator at 37 °C and 5% CO2. Media was changed every 2 days, and cells were passaged every 3–4 days at a subcultivation ratio of 1:10, by detaching the cells with phenol-free TrypLE Express (ThermoFisher, UK), after washing with HBSS Ca^2+/Mg^2+ (ThermoFisher, UK). Up to 55 passages were used throughout the experiments.
(a) Cell seeding: At subculture, a dilute solution of cells was counted using Trypan Blue (Sigma-Aldrich, UK) and a hemocytometer. Cells were further diluted to 7000 or 50 000 cells/mL for experiments.
For recovery experiments, 700 cells (100 μL) were seeded in 96-well plates and incubated for 48 h while cells reached exponential phase.
For non-recovery experiments, 5000 cells (100 μL) were seeded in 96-well plates and incubated for 48 h while cells reached confluence. This is the same number of cells as per the CO-ADD protocol where 384-well plates were used, but we extended the growth time to 48 h to produce a similar confluency.
Stock solutions were diluted 100 times (to 1% DMSO) to 32 μg/mL in full medium (vortexed briefly) and then serially diluted using a digital pipet (Explorer, Eppendorf, Germany) at a dilution factor of 2 to a final concentration of […].
(c) Dosing experiments: At the specified time after seeding, media was removed from cells, cells were washed with HBSS Ca^2+/Mg^2+ (100 μL), and 100 μL of diluted compounds were added as per Supporting Information - Biology, Figure S4, and incubated for 24 h.
After treatment, solutions were removed, and cells were washed with HBSS Ca^2+/Mg^2+. For non-recovery experiments, viability was determined immediately as described below.
For recovery experiments, fresh media was added to plates (100 μL) and cells were returned to the incubator for another 72 h, after which viability was recorded as described below.
i. MTT assay: 3-[4,5-Dimethylthiazol-2-yl]-2,5-diphenyltetrazolium bromide (MTT) (Sigma-Aldrich, UK) was dissolved in sterile PBS at 5 mg/mL with sonication (20 min), protected from light. […]

[4] = test system: Staphylococcus aureus ATCC 43300 MRSA; assay: CO-ADD antibacterial assay (growth inhibition, MIC), MRSA; type: cell-based
Description: Hit Confirmation of active compounds by whole cell growth inhibition assays was conducted as an 8-point dose response to determine the Minimum Inhibitory Concentration (MIC), in duplicate (n=2). The inhibition of growth is measured against those microorganisms that […]
Included in the Hit Confirmation were 5 bacteria: Escherichia coli, Klebsiella pneumoniae, Acinetobacter baumannii, Pseudomonas aeruginosa and Staphylococcus aureus, and 2 fungi Candida albicans and Cryptococcus neoformans. […]
Assay Parameters Bacteria Fungi HEK293 Haemolysis […]
Duplicate (n=2) Duplicate (n=2) Duplicate (n=2) Duplicate (n=2)
QC Control MIC: Control MIC: Control CC50: Control HC10:
Non-Binding Non-Binding TC, 384-well Polypropylene
Plates Surface (NBS), Surface (NBS), black wall/clear 384-well and 384-well plate 384-well plate bottom polystyrene 384-
Cation-adjusted Yeast Nitrogen DMEM
Media Mueller Hinton Base supplemented 0.9% NaCl
Hit Confirmation outcomes are detailed in individual Project reports, personalised for each Project Submission for each CO-ADD user.
Please see your data sheet with file extension P0XXX_HC_data.xlsx, for example CO-ADD Project P0100, P0100_HC_data.xlsx
Study: HC_data ID: HC-Procedures & Materials
Date: Last updated June 2018 Confidential Page 3 of 11
(1 picture or pasted object on this page, not shown here)
Samples were provided by the collaborator and stored frozen at -20 °C. Samples were prepared in DMSO and water to a final testing concentration of 32 µg/mL or 20 µM (unless otherwise indicated in the data sheet) and serially diluted 1:2 fold for 8 times. Each sample concentration was prepared in 384-well plates, non-binding surface plate (NBS; Corning 3640) for each bacterial/fungal strain, tissue-culture treated (TC-treated; Corning 3712/3764) black for mammalian cell types and polypropylene 384-well (PP; Corning 3657) for haemolysis assays, all in duplicate (n=2), and keeping the final DMSO concentration to a maximum of 0.5%. All the sample preparation was done using liquid handling robots. […]
detailed in the Data sheet for the individual Project.
All bacteria were cultured in Cation-adjusted Mueller Hinton broth (CAMHB) at 37 °C overnight. A sample of each culture was then diluted 40-fold in fresh broth and incubated at 37 °C for 1.5-3 h. The resultant mid-log phase cultures were diluted (CFU/mL measured by OD600), then added to each well of the compound containing plates, giving a cell density of 5×10^5 CFU/mL and a total volume of 50 µL. All the plates were covered and incubated at 37 °C for 18 h without shaking.
Inhibition of bacterial growth was determined measuring absorbance at 600 nm (OD600), using a Tecan M1000 Pro monochromator plate reader. The percentage of growth inhibition was calculated for each well, using the negative control (media only) and positive control (bacteria without inhibitors) on the same plate as references.
The percentage of growth inhibition was calculated for each well, using the negative control (media only) and positive control (bacteria without inhibitors) on the same plate. The MIC […]
by an inhibition ≥ 80%. In addition, the maximal percentage of growth inhibition is reported as DMax, indicating any compounds with partial activity.
Date: Last updated June 2018 Confidential Page 5 of 11
Material Code Brand/Supplier Cat No.
Compound preparation plate, Polypropylene PP Corning 3364
Assay Plates – Antimicrobial
Non-binding surface NBS 384w Corning 3640
Assay Plates – Cytotoxicity
Tissue culture treated Black/Clear bottom 384w Corning 3712
Assay Plates - Haemolysis PP-Haem Corning 3657 […]
Growth media - bacteria CAMHB Bacto Laboratories 212322
Culture agar - fungi YPD Becton Dickinson 242720
Growth media - fungi YNB Becton Dickinson 233520
Resazurin Sigma-Aldrich R7017
Dulbecco's Modified Eagle Medium DMEM Life Technologies 11995-073
Foetal Bovine Serum FBS Bovogen FFBS-500
0.9% NaCl Saline Baxter AHF7124
Sample Name Sample ID MW Conc. Solvent Source […]

[5] = test system: PMM (primary mouse macrophages); assay: Toxicity against PMM; type: cell-based
Description: (§2) ADME and toxicity for compounds were measured according to procedures outlined in the manuscript submitted in parallel to this one;2 other procedures were used for those compounds analysed by Monash University (in vitro ADME) or UCL (toxicity), both described in the main

[6] = test system: MRC-5SV2 (human lung fibroblast cell line); assay: Toxicity against MRC-5SV2; type: cell-based
Description: as §2

[7] = test system: S. aureus ATCC 25923 (methicillin-susceptible); assay: In vitro antibacterial activity, MIC (UCL), MSSA; type: cell-based, Staphylococcus aureus; settings: Staphylococcus aureus
Outline: as §1

[8] = Human plasma protein binding (PPB); type: in vitro ADME; settings: human, plasma, human plasma, NEU; read-out: Human PPB (NEU) (converted)
[9] = Rat hepatocyte intrinsic clearance; type: in vitro ADME; settings: rat hepatocytes, NEU
[10] = Human liver microsome intrinsic clearance; type: in vitro ADME; settings: human liver microsomes, NEU
[11] = Aqueous solubility; type: physicochemical; settings: thermodynamic from solid; NEU; read-out: Aqueous Solubility (NEU)

Compound	MIC ([1]; read-out: VRE MIC)	MIC ([2]; read-out: MRSA MIC)	Dmax spread between recovery and non-recovery conditions at 24 h, 32 μg/mL [3]	MIC ([4]; read-out: MRSA MIC (CO-ADD))	also measured
c1ccc(-c2c(-c3ccccn3)nc3n2CCC3)cc1 [compound 870]	> 32 µg/mL	32 µg/mL (≈ 122 µM)	> 20%		
c1ccc(-c2nc3n(c2-c2ccc4ccoc4c2)CCC3)nc1 [OSA_000829]				4 µg/mL (≈ 13.3 µM)	
c1cncc(-c2nc3n(c2-c2ccc4c(c2)OCO4)CCC3)c1 [OSA_000816]				> 32 µg/mL	
CN[C@H](CC(C)C)C(=O)N[C@H]1C(=O)N[C@@H](CC(N)=O)C(=O)N[C@H]2C(=O)N[C@H]3C(=O)N[C@H](C(=O)N[C@H](C(=O)O)c4cc(O)cc(O)c4-c4cc3ccc4O)[C@H](O)c3ccc(c(Cl)c3)Oc3cc2cc(c3O[C@@H]2O[C@H](CO)[C@@H](O)[C@H](O)[C@H]2O[C@H]2C[C@](C)(N)[C@H](O)[C@H](C)O2)Oc2ccc(cc2Cl)[C@H]1O [Vancomycin - HCl, Vancomycin - HCL, reference compound]					MIC ([4]; read-out: MIC MRSA (CO-ADD)): 1 µg/mL
CCN(c1ccc(F)cc1)c1c(-c2ccccn2)nc2ccccn12 [compound 981]	8 µg/mL (≈ 24.1 µM)	2 µg/mL (≈ 6.02 µM)	> 20%		PMM TC50 [5]: 2.7 µg/mL; MRC5 TC50 [6]: 1.6 µg/mL; MIC ([7]; read-out: MSSA MIC): 2 µg/mL (≈ 6.02 µM)
COc1ccc2nc(-c3ccccn3)c(N(C)c3ccc(F)cc3)n2c1 [compound 980]	8 µg/mL (≈ 23 µM)	4 µg/mL (≈ 11.5 µM)	> 20%		PMM TC50 [5]: 2.8 µg/mL; MRC5 TC50 [6]: 0.7 µg/mL; MIC ([7]; read-out: MSSA MIC): 4 µg/mL (≈ 11.5 µM)
c1ccc(-c2nc3ncccn3c2-c2ccc3c(c2)OCO3)nc1 [OSA_000815]				> 32 µg/mL	
c1ccc(-c2c(-c3ccccn3)nc3n2CCC3)cc1 [OSA_000870]					fraction unbound [8]: 0.15; MIC ([1]; read-out: VRE MIC (UCL)): > 32 µg/mL; Rat Hep CLint (NEU) [9]: 25.9 uL/min/10x6 cells; MIC ([2]; UCL, read-out: MRSA MIC (UCL)): 32 µg/mL (≈ 122 µM); HLM CLint (NEU) [10]: 64 uL/min/mg protein; CC50 at 24 h ([3]; read-out: HEK293 CC50): 3.6 µg/mL (≈ 13.8 µM); solubility [11]: 179 µM (≈ 46.8 µg/mL)
COc1ccc(-c2c(-c3ccccn3)nc3n2CCC3)cc1OC [OSA_000820]				32 µg/mL (≈ 99.6 µM)	MIC ([2]; UCL, read-out: MRSA MIC (UCL)): > 32 µg/mL; MIC ([7]; read-out: MSSA MIC (UCL)): > 32 µg/mL
c1ccc(-c2nc3n(c2-c2ccc4c(c2)OCO4)CCCC3)nc1 [OSA_000818]				16 µg/mL (≈ 50.1 µM)	
c1ccc(-c2nc3ccccn3c2-c2ccc3sccc3c2)nc1 [compound 871]	8 µg/mL (≈ 24.4 µM)	4 µg/mL (≈ 12.2 µM)	> 20%		

From paper PMC10714399, “Open Source Antibiotics: Simple Diarylimidazoles Are Potent against Methicillin-Resistant Staphylococcus aureus” (ACS Infectious Diseases, 2023)
